The target in one experiment is T1, HO-2 (rat brain) (Rattus norvegicus, UniProt P23711).
T1 construct: brain microsomes were used as a source of HO-2; from tissue; host or cells: brain microsomal fraction of adult male Sprague-Dawley rats
T1 sequence (P23711 1-315): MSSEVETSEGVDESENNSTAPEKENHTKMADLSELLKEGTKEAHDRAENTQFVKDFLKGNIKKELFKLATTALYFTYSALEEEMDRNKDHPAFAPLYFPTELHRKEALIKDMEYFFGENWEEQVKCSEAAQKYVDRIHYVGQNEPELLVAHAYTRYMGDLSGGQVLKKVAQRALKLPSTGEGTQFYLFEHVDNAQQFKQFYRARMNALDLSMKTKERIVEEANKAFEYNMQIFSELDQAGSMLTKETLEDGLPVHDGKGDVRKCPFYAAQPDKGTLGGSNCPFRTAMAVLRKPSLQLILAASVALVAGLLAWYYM
The experiment in a line: HO enzymatic activity, rat brain microsomal fraction (CO formation from methemalbumin). In kind it is biochemical. On the procedure: (§1) Incubations for HO activity analysis were done under conditions for which the rate of CO formation (pmol CO×min^−1×mg protein^−1) was linear with respect to time and microsomal protein concentration. Briefly, reaction mixtures (150 μL) consisting of 100 mM phosphate buffer (pH 7.4), 50 μM methemalbumin, and 1 mg/mL protein were pre-incubated with the inhibitors at final concentrations ranging from 0.1-100 μM for 10 minutes at 37° C. Reactions were initiated by adding NADPH at a final concentration of 1 mM and incubations were performed for an additional 15 minutes at 37° C.
(§2) Incubations for HO activity analysis were done under conditions for which the rate of CO formation (pmol CO/mg protein/minute) was linear with respect to time and microsomal protein concentration. Briefly, reaction mixtures (150 μL) consisting of 100 mM phosphate buffer (pH 7.4), 50 μM methemalbumin and 1 mg/mL protein were pre-incubated with the vehicle (ethanol or water in which the inhibitors were dissolved), or inhibitors at final concentrations ranging from 0.1-1000 μM for 10 minutes at 37° C. Reactions were initiated by adding β-NADPH at a final concentration of 1 mM and incubations were carried out for an additional 15 minutes at 37° C. Reactions were stopped by instantly freezing the reaction mixture on pulverized dry ice and CO formation was measured by gas chromatography using a TA 3000R Process Gas Analyzer (Trace Analytical/Ametek, Newark, Del., USA).
(§3) The values on the abscissa represent the decimal logarithm of the inhibitor's concentration (in μM), whereas the values of the activity on the ordinate are expressed as a percentage of the control experiments without inhibitor.
(§4) The IC50 values for the replicate experiments were employed to generate the reported standard deviation value.

The next experiment has as its target T2, HO-1 (rat spleen) (Rattus norvegicus, UniProt P06762).
T2 construct: Spleen microsomes were used as a source of HO-1; from tissue; host or cells: spleen microsomal fraction of adult male Sprague-Dawley rats
T2 sequence (P06762 1-289): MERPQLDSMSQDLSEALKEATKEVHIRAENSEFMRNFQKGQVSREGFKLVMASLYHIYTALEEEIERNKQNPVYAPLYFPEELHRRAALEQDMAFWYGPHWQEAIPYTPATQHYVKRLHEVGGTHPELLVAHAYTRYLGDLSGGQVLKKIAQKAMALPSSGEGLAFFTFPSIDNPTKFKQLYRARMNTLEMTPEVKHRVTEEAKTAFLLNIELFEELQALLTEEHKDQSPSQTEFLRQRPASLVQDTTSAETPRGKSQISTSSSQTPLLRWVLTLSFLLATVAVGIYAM
Put plainly: HO enzymatic activity, rat spleen microsomal fraction (CO formation from methemalbumin). In kind it is biochemical. On the procedure: as §1, §2, §3, §4

The mark [1] stands for this setting: IC50 HO-2 (rat brain)/μM), CO formation from methemalbumin, mean ± SD of replicate experiments.
Setting [2] is: IC50 HO-1 (rat spleen/μM), CO formation from methemalbumin, mean ± SD of replicate experiments.
[3] abbreviates: CO formation from methemalbumin, mean ± SD of replicate experiments, read-out: IC50 HO-1 (rat spleen/μM).
[4] abbreviates: CO formation from methemalbumin, mean ± SD of replicate experiments, read-out: IC50 HO-2 (rat brain)/μM).
[5] abbreviates: IC50 HO-2 (rat brain)/μM), average ± SD of replicate experiments.

Counter-ions that a name gives are not always drawn. Like-named read-outs stand apart in the source and are kept apart here.

Consider `Nc1ccccc1SC[C@@H]1CO[C@](CCc2ccc(Cl)cc2)(Cn2ccnc2)O1` [QC-3, (2S,4S)-2-[2-(4-chlorophenyl)ethyl]-2-[(1H-imidazol-1-yl)methyl]-4-[{(2-aminophenyl)thio}methyl]-1,3-dioxolane dihydrochloride], for which the IC50 on HO-2 (rat brain) (setting [1]) was determined as 55 ± 26 µM.
In the case of `Cc1ccc(S(=O)(=O)OC[C@@H]2CO[C@](CCc3ccc(Cl)cc3)(Cn3ccnc3)O2)cc1` [QC-4, (2S,4S)-2-[2-(4-chlorophenyl)ethyl]-2-[(1H-imidazol-1-yl)methyl]-4-[(p-toluenesulfonyloxy)methyl]-1,3-dioxolane dihydrochloride], the IC50 at HO-1 (rat spleen) (setting [2]) was determined as 19 ± 9 µM; on HO-2 (rat brain) (setting [1]) it was 48 ± 6 µM.
For `Cc1ccc(S(=O)(=O)OC[C@@H]2CO[C@](CCc3ccc(Cl)cc3)(Cn3ccnc3)O2)cc1` [QC-6, (2S,4S)-2-[2-(4-chlorophenyl)ethyl]-2-[(1H-imidazol-1-yl)methyl]-4-[(p-toluenesulfonyloxy)methyl]-1,3-dioxolane], in that order: 21 ± 2 µM and 23 ± 6 µM.
As for `Nc1cccc(SC[C@@H]2CO[C@](CCc3ccc(Cl)cc3)(Cn3ccnc3)O2)c1` [QC-7, (2S,4S)-2-[2-(4-chlorophenyl)ethyl]-2-[(1H-imidazol-1-yl)methyl]-4-[{(3-aminophenyl)thio}methyl]-1,3-dioxolane dihydrochloride], the IC50 against HO-1 (rat spleen) (setting [2]) was 1.5 ± 0.1 µM; on HO-2 (rat brain) (setting [1]), 21 ± 1 µM.
On to `COc1ccc(OC[C@H]2CO[C@](CCc3ccc(Cl)cc3)(Cn3ccnc3)O2)cc1` [QC-8, (2S,4S)-2-[2-(4-chlorophenyl)ethyl]-2-[(1H-imidazol-1-yl)methyl]-4-[(4-methoxyphenyloxy)methyl]-1,3-dioxolane hydrochloride], for which the results for the IC50 on HO-1 (rat spleen) (setting [3]) and on HO-2 (rat brain) (setting [4]) were 28 ± 15 µM and 29 ± 6 µM, respectively.
For the compound `O=C(CCc1ccc(Cl)cc1)Cn1ccnc1` [QC-9, 4-(4-chlorophenyl)-1-(1H-imidazol-1-yl)-2-butanone hydrochloride], the IC50 on HO-2 (rat brain) (setting [4]) was 43 ± 5 µM.
`Nc1cccc(SC[C@H]2CO[C@](CCc3ccc(Cl)cc3)(Cn3ccnc3)O2)c1` [QC-20, (2S,4R)-2-[2-(4-chlorophenyl)ethyl]-2-[(1H-imidazol-1-yl)methyl]-4-[{(3-aminophenyl)thio}methyl]-1,3-dioxolane hydrochloride] came in with an IC50 on HO-1 (rat spleen) (setting [2]) of 5.2 ± 0.4 µM.
On to `Cc1ccc(S(=O)(=O)OC[C@H]2CO[C@@](CCc3ccc(Cl)cc3)(Cn3ccnc3)O2)cc1` [QC-21, (2R,4R)-2-[2-(4-chlorophenyl)ethyl]-2-[(1H-imidazol-1-yl)methyl]-4-[(p-toluenesulfonyloxy)methyl]-1,3-dioxolane], for which the values for the IC50 against HO-1 (rat spleen) (setting [2]) and against HO-2 (rat brain) (setting [1]) were 0.8 ± 0.3 µM and 23 ± 10 µM, respectively.
As for `Nc1ccccc1SC[C@H]1CO[C@@](CCc2ccc(Cl)cc2)(Cn2ccnc2)O1` [QC-22, (2R,4R)-2-[2-(4-chlorophenyl)ethyl]-2-[(1H-imidazol-1-yl)methyl]-4-[{(2-aminophenyl)thio}methyl]-1,3-dioxolane dihydrochloride], the IC50 against HO-1 (rat spleen) (setting [2]) was 87 ± 24 µM.
Consider `COc1cccc(-c2nnn[nH]2)c1` [QC-28, 5-(3-methoxyphenyl)-1H-tetrazole], for which the IC50 at HO-1 (rat spleen) (setting [3]) and on HO-2 (rat brain) (setting [4]) was > 100 µM throughout.
In the case of `Nc1cc(Cl)ccc1-c1nnn[nH]1` [QC-29, 5-(2-amino-4-chlorophenyl)-1H-tetrazole], the IC50 at HO-1 (rat spleen) (setting [3]) and on HO-2 (rat brain) (setting [4]) was > 100 µM throughout.
In the case of `CCC(O)Cn1ccnc1` (stereo not drawn) [QC-31, 1-(1H-imidazol-1-yl)butan-2-ol hydrochloride], the IC50 against HO-1 (rat spleen) (setting [2]) was 131 ± 38 µM; against HO-2 (rat brain) (setting [1]), > 100 µM.
For `COc1ccc(CCC(O)Cn2ccnc2)cc1` (stereo not drawn) [QC-33, 4-(4-methoxyphenyl)-1-(1H-imidazol-1-yl)butan-2-ol hydrochloride], in that order: 0.7 ± 0.1 µM and 6 ± 4 µM.
`CCC(COC(C)=O)n1ccnc1` (stereo not drawn) [QC-36, 1-acetoxy-2-(1H-imidazol-1-yl)-butane]: the IC50 on HO-1 (rat spleen) (setting [3]) and at HO-2 (rat brain) (setting [4]) was > 100 µM throughout.
In the case of `Fc1ccc(COC(CCc2ccc(Cl)cc2)Cn2ccnc2)cc1` (stereo not drawn) [QC-37, 4-(4-Chlorophenyl)-2-(4-fluorobenzyloxy)-1-(1H-imidazol-1-yl)butane hydrochloride], the IC50 stood at 0.9 ± 0.3 µM at HO-1 (rat spleen) (setting [3]) and 1 ± 0.01 µM at HO-2 (rat brain) (setting [4]).
With `c1c[nH]cn1` [QC-43, Imidazole, reference compound], the IC50 against HO-1 (rat spleen) (setting [2]) and against HO-2 (rat brain) (setting [1]) was > 100 µM in each case.
As to `Cc1ncc[nH]1` [QC-45, 2-methylimidazole, reference compound], the IC50 at HO-1 (rat spleen) (setting [3]) and at HO-2 (rat brain) (setting [4]) was > 100 µM throughout.
Regarding `Oc1ccc(OC[C@H]2CO[C@@](CCc3ccc(Cl)cc3)(Cn3ccnc3)O2)cc1` [QC-46, (2R,4S)-4-{2-[2-(4-Chlorophenyl)ethyl]-2-imidazol-1-ylmethyl-[1,3]dioxolan-4-ylmethoxy}phenol hydrochloride], the IC50 on HO-1 (rat spleen) (setting [3]) was determined as 1.8 ± 0.5 µM; at HO-2 (rat brain) (setting [4]), 7.1 ± 0.7 µM.
Turning to `O=C(CCc1ccc(Br)cc1)Cn1ccnc1` [QC-53, 4-(4-Bromophenyl)-1-(1H-imidazol-1-yl)-2-butanone hydrochloride], the IC50 at HO-2 (rat brain) (setting [1]) is 10 ± 5 µM.
The same measure, in the same setting: for `O=C(CCc1ccc(F)cc1)Cn1ccnc1` [QC-54, 4-(4-Fluorophenyl)-1-(1H-imidazol-1-yl)-2-butanone hydrochloride] the value was 2 ± 0.2 µM.
`Fc1ccc(CCC2(Cn3ccnc3)OCCO2)cc1` [QC-55, 1-((2-(2-(4-Fluorophenyl)ethyl)-1,3-dioxolan-2-yl)methyl)-1H-imidazole hydrochloride]: the IC50 against HO-1 (rat spleen) (setting [2]) came out at 4 ± 1 µM.
For `O=C(CBr)CCc1ccc(Br)cc1` [QC-59, 1-bromo-4-(4-bromophenyl)butan-2-one], the IC50 on HO-1 (rat spleen) (setting [3]) came to 42 ± 5 µM; at HO-2 (rat brain) (setting [4]), 125 ± 22 µM.
Regarding `O=C(CCc1ccc(Br)cc1)Cn1cncn1` [QC-64, 4-(4-bromophenyl)-1-[1,2,4]triazol-1-yl-butan-2-one hydrochloride], at HO-2 (rat brain) (setting [1]), the IC50 was 3 ± 2 µM.
Regarding `O=C(CCc1ccccc1)Cn1cncn1` [QC-86, 4-phenyl-1-[1,2,4]triazol-1-yl-butan-2-one hydrochloride], the IC50 at HO-2 (rat brain) (setting [4]) came out at 34 ± 3 µM.
With `O=C(CCc1ccccc1)Cn1cccn1` [QC-87, 4-phenyl-1-pyrazol-1-yl-butan-2-one hydrochloride], the IC50 against HO-1 (rat spleen) (setting [2]) is > 100 µM.
With `OC(Cn1cncn1)(Cn1cncn1)c1ccc(F)cc1F` [QC-90, Fluconazole, reference compound], on HO-2 (rat brain) (setting [4]), the IC50 is > 100 µM.
In the case of `O=C(CCc1ccccc1)Cn1ccnn1` [QC-91, 4-phenyl-1-(1H-[1,2,3]triazol-1-yl)butan-2-one], the IC50 on HO-1 (rat spleen) (setting [3]) turned out to be 89 ± 1 µM.
Same read-out and setting: for `O=C(CCc1ccccc1)Cn1nccn1` [QC-101, 4-phenyl-1-[1,2,3]triazol-2-yl-butan-2-one] the value was > 100 µM; for `c1ccc(CCC2(Cn3cncn3)OCCO2)cc1` [QC-104, 2-(2-phenethyl)-2-{(1H-[1,2,4]triazol-1-yl)methyl}-1,3-dioxolane hydrochloride], 14 ± 3 µM.
Take `Cl.Clc1ccc(CC[C@@]2(Cn3ccnc3)OC[C@@H](COc3ccc(-c4ccccc4)cc3)O2)cc1` [QC-129, (2R,4S)-1-{4-Biphenyl-4-yloxymethyl)-2-[2-(4-chlorophenyl)ethyl]-[1,3]dioxolan-2-ylmethyl}-1H-imidazole hydrochloride]: the IC50 on HO-2 (rat brain) (setting [4]) is 43 ± 3 µM.
In the case of `CC(C)(C(=O)c1ccccc1)n1ccnc1` [QC-187, 2-Imidazol-1-yl-2-methyl-1-phenyl-propan-1-one], at HO-1 (rat spleen) (IC50 HO-1 (rat spleen/μM), average ± SD of replicate experiments), the IC50 is > 100 µM.
As to `O=C(Cn1ccnc1)c1ccc(Cl)c(Cl)c1` [QC-189, 1-(3,4-Dichlorophenyl)-2-imidazol-1-yl-ethanone], at HO-2 (rat brain) (setting [5]), the IC50 was found to be 4.7 ± 0.7 µM.
The same measure, in the same setting: for `O=C(/C=C/c1ccccc1)CCn1ccnc1` [QC-223, 5-(1H-Imidazol-1-yl)-1-phenyl-pent-1-en-3-one hydrochloride] the value was 31 ± 12 µM.

For the origin of these results see patent US20120020915A1, “Compounds and Methods for Treating Cancer and Diseases of the Central Nervous System” (QUEENS UNIVERSITY AT KINGSTON, priority 2007, published 2012).
